# Paper PMC3365014, “Specific Recognition of p53 Tetramers by Peptides Derived from p53 Interacting Proteins” (PLoS ONE, 2012)
# “Also recorded” adds a separate entry of the source.
# Tested on: FlAsH-labeled full-length p53 (M133L/V203A/N239Y/N268D)
# Assay: Fluorescence-monitored analytical ultracentrifugation sedimentation velocity
# Format: binding
# Conditions: 25–50 nM FlAsH-p53, peptide up to 500 µM or solubility limit; 25 mM NaPi pH 7.2, 150 mM NaCl, 10% glycerol, 10°C
# Description: We tested whether the peptides that bind tetrameric p53CTD can bind specifically to tetrameric p53 in a mixture of the different oligomers. Testing the specificity of the peptides for tetrameric p53 must be performed at very low p53 concentrations (<100 nM), where a significant population of dimers is present in addition to the tetramers [21]. Therefore, we used fluorescence-monitored analytical ultracentrifugation sedimentation velocity experiments using FlAsH-labeled full-length p53. The fluorescent label on p53 enables working at nanomolar protein concentrations and allows for specific detection of the protein without interference from any other molecule in the solution.
# We incubated FlAsH-p53 with different concentrations of the peptides and measured the sedimentation profiles of the protein (Figure 7). […] Sedimentation coefficients of∼2 S correspond to dimers and∼3 S correspond to tetramers. Presumably, sedimentation coefficients of up to∼4 S correspond to p53 tetramers bound to one or more peptide molecules. […] Most likely higher sedimentation coefficients (>4 S) correspond to higher-order oligomers of p53.
# C-terminally FlAsH-tagged (CCPGCC) p53 was expressed and reacted with FlAsH-EDT2 as described [24]. This introduces a specific fluorescent label at the carboxy terminus of p53. The protein was dialyzed against 25 mM NaPi pH = 7.2, 150 mM NaCl, 14.2 mM β-mercaptoethanol, 0.2 mg/ml BSA and 10% glycerol. […] The measurements were performed in a Beckman-Coulter Optima XL-I ultracentrifuge with an Aviv fluorescence detection system [29] in SedVel60K-FDS fluorescence velocity cells. The samples were equilibrated in the cells at 10°C for 3 hours before centrifugation. The AUC run was performed as described [23], [48] and analyzed using SedFit software [56].
row,SMILES,AUC effect
1,CSCC[C@H](NC(=O)CNC(=O)[C@@H]1CCCN1C(=O)[C@H](CCC(N)=O)NC(=O)[C@H](CC(C)C)NC(=O)[C@@H](N)[C@@H](C)O)C(=O)N[C@@H](CCCNC(=N)N)C(=O)N[C@H](C(=O)N[C@@H](CCCNC(=N)N)C(=O)N[C@@H](CCSC)C(=O)N[C@@H](CC(C)C)C(=O)N[C@@H](CC(=O)O)C(=O)N[C@@H](CC(=O)O)C(=O)N[C@@H](Cc1ccc(O)cc1)C(=O)N[C@@H](CCC(=O)O)C(N)=O)C(C)C [Cul7(376–390)],"a specific shift of the tetramer peak was observed but at much higher concentrations, and no high-order oligomers were formed; also recorded: causes a shift of the tetramer peak at very high peptide concentrations; also recorded: Tetramer shift"
2,CC[C@H](C)[C@H](NC(=O)[C@H](CCC(=O)O)NC(=O)[C@H](CCC(=O)O)NC(=O)[C@H](Cc1ccc(O)cc1)NC(=O)[C@H](CC(=O)O)NC(=O)[C@H](CC(=O)O)NC(=O)[C@H](CC(C)C)NC(=O)[C@H](CCSC)NC(=O)[C@H](CCCNC(=N)N)NC(=O)[C@@H](NC(=O)[C@H](CCCNC(=N)N)NC(=O)[C@H](CCSC)NC(=O)CN)C(C)C)C(=O)N[C@@H](CO)C(=O)N[C@@H](C)C(N)=O [PARC(386–400)],"a specific shift of the tetramer peak was observed but at much higher concentrations, and no high-order oligomers were formed; also recorded: Tetramer shift"
